As a reminder, the Kp is the ratio of the level in a tissue or fluid to that in plasma or blood. As a reminder, the IC50 is the concentration that inhibits the measured activity by half.

Where only a bound is given, the exact number is not on record here.

Series [1] in a line: measured Brain/Blood verification experiment in BALB/c mice. Format: in vivo. To be noted: mouse, 5 mg/kg, five minutes after administration, brain homogenate vs plasma. The protocol:
The Brain/Blood value predicted with the above method was verified with an experiment using BALB/c mice. As test substances in the verification experiment, two compounds of SR-4277 and Famotidine were used. […] The test substance was administered in 5 mg/kg to the mice. The mice were anesthetized in advance with isoflurane, and exsanguination was performed from the vena cava of the mice five minutes after the administration. Brains were removed, and weights thereof were measured. After that, a brain homogenate was prepared. The collected blood was subjected to centrifugation, and plasma was thereby prepared. Concentrations of the test substance in plasma and the brain homogenate were measured with HPLC and MS.

Another series addresses OCT3 (Homo sapiens (Human), UniProt O75751). To be noted: Non Patent Literature 1; read-out: IC50 (reported); cited from earlier work.
The subject of the next series is ddY male mice. Kind of series: forced swimming test. As to conditions: low dose administered alone (imipramine 4 mg/kg or OCT3 inhibitor 0.25 μl/hr). Format: in vivo.

Chain of OCT3 (O75751 whole entry): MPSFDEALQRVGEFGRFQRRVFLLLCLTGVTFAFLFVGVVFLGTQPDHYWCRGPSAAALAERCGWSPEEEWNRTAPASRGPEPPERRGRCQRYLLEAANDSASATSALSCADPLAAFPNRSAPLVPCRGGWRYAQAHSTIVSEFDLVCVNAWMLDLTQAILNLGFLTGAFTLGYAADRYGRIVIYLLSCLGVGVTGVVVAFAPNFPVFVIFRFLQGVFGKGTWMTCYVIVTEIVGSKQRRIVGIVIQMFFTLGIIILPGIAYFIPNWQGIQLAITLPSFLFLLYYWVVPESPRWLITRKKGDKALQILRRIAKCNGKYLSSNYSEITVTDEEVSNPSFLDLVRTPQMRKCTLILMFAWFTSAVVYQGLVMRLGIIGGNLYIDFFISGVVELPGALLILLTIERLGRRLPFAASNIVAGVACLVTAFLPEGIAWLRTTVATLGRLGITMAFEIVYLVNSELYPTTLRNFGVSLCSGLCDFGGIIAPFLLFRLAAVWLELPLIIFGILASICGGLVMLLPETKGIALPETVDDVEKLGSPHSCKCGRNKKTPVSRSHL
Protocol for ddY male mice: In this forced swimming test, mice or rats as test animals are forced to swim in water tanks from which the mice or rats cannot escape. Then, an immobility behavior of the test animals after an escape behavior thereof (a state in which only the head is above the water surface and the test animals are floating without moving the hands or feet) is observed. When the test animals are put into the water tanks again 24 hours or more later, the immobility behavior is expressed earlier than in the first experiment. Duration of this immobility behavior for a certain time (usually about 5 minutes) is relatively accurately reproduced.
Specifically, a test is performed as follows.
In an experiment, ddY male mice each weighing 28 to 33 g (Japan SLC, Inc.) are used. […] After being acquired, these mice are bred in a room in which temperature (22 to 24° C.), humidity (50 to 60%), and lighting (lighting 8:00 to 20:00) are controlled for three or more days. In the first forced swimming test, all the experimental mice are forced to swim in glass cylinders (diameter 15.5 cm, depth 17 cm, water depth 12 cm, water temperature 25° C.) for 300 seconds to measure immobility time. The mice are distributed into experimental groups (an OCT3 inhibitor-administrated group, a positive control group, and a negative control group) such that an average value of the immobility time is almost the same. […]

Turning to `NC(N)=Nc1nc(CSCCC(N)=NS(N)(=O)=O)cs1` [Famotidine], the Kp at 5 min in series [1] stood at 0.1. Also, at OCT3, the IC50 is 20 µM.

Turning to `CN/C(=N/CCSCc1nc[nH]c1C)NC#N` [cimetidine], at OCT3, the IC50 is 240 µM.

Turning to `CN1C2CCCC1CC(NC(=O)c1nn(C)c3ccccc13)C2` (stereo not drawn) [granisetron], the IC50 on OCT3 was at most 100 µM.

Consider `CN(C)CCCN1c2ccccc2CCc2ccccc21` [imipramine], for which the “average value of the immobility time” value in the series on ddY male mice is listed as “about 200 seconds”.

For `Cn1cc(C(=O)[C@@H]2CCc3nc[nH]c3C2)c2ccccc21` [ramosetron], the half-inhibitory concentration (IC50) on OCT3 was at most 100 µM.

These data come from patent US10149840B2, “OCT3 activity inhibitor containing imidazopyridine derivative as active component, and OCT3 detection agent” (SHIN NIPPON BIOMEDICAL LABORATORIES, LTD., priority 2012, dated 2018).
